Earlier results, collected in patent publication US20150148324A1 (VALPHARMA INTERNATIONAL S.P.A., priority 2012, published 2015).

Test system: uterine fibroma
Conditions: daily oral 5 mg for 6 months, versus higher doses

## CC#C[C@]1(O)CC[C@H]2[C@@H]3CCC4=CC(=O)CCC4=C3[C@@H](c3ccc(N(C)C)cc3)C[C@@]21C [Mifepristone]
  effect in the treatment of uterine fibroma: effects comparable with those of higher doses of Mifepristone
